Reference: PubChem BioAssay (NCI)
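In this assay, cells in 96-well plates receive the compound at five concentrations for 48 hours. Endpoints are linearly interpolated between the surrounding concentrations. TGI marks complete inhibition of growth.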

Experiments:
Experiment in all cases: NCI-60 cell line screen, 48 h
786-0 renal = tested on: 786-0 renal
A498 renal = tested on: A498 renal
A549 NSCLC = tested on: A549 NSCLC
ACHN renal = tested on: ACHN renal
CAKI-1 renal = tested on: CAKI-1 renal
CCRF-CEM leukemia = tested on: CCRF-CEM leukemia
COLO 205 colon = tested on: COLO 205 colon
DLD-1 colon = tested on: DLD-1 colon
DMS 114 small cell lung = tested on: DMS 114 small cell lung
DMS 273 small cell lung = tested on: DMS 273 small cell lung
EKVX NSCLC = tested on: EKVX NSCLC
HCC-2998 colon = tested on: HCC-2998 colon
HCT-116 colon = tested on: HCT-116 colon
HCT-15 colon = tested on: HCT-15 colon
HL-60(TB) leukemia = tested on: HL-60(TB) leukemia
HOP-18 NSCLC = tested on: HOP-18 NSCLC
HOP-62 NSCLC = tested on: HOP-62 NSCLC
HOP-92 NSCLC = tested on: HOP-92 NSCLC
HT29 colon = tested on: HT29 colon
IGROV1 ovarian = tested on: IGROV1 ovarian
K-562 leukemia = tested on: K-562 leukemia
KM12 colon = tested on: KM12 colon
KM20L2 colon = tested on: KM20L2 colon
LOX IMVI melanoma = tested on: LOX IMVI melanoma
LXFL 529 NSCLC = tested on: LXFL 529 NSCLC
M14 melanoma = tested on: M14 melanoma
M19-MEL melanoma = tested on: M19-MEL melanoma
MALME-3M melanoma = tested on: MALME-3M melanoma
MOLT-4 leukemia = tested on: MOLT-4 leukemia
NCI-H226 lung = tested on: NCI-H226 lung
NCI-H23 lung = tested on: NCI-H23 lung
NCI-H460 lung = tested on: NCI-H460 lung
NCI-H522 lung = tested on: NCI-H522 lung
OVCAR-3 ovarian = tested on: OVCAR-3 ovarian
OVCAR-4 ovarian = tested on: OVCAR-4 ovarian
OVCAR-5 ovarian = tested on: OVCAR-5 ovarian
OVCAR-8 ovarian = tested on: OVCAR-8 ovarian
RPMI-8226 leukemia = tested on: RPMI-8226 leukemia
RXF 393 renal = tested on: RXF 393 renal
RXF-631 renal = tested on: RXF-631 renal
SF-268 CNS = tested on: SF-268 CNS
SF-295 CNS = tested on: SF-295 CNS
SF-539 CNS = tested on: SF-539 CNS
SK-MEL-2 melanoma = tested on: SK-MEL-2 melanoma
SK-MEL-28 melanoma = tested on: SK-MEL-28 melanoma
SK-MEL-5 melanoma = tested on: SK-MEL-5 melanoma
SK-OV-3 ovarian = tested on: SK-OV-3 ovarian
SN12C renal = tested on: SN12C renal
SNB-19 CNS = tested on: SNB-19 CNS
SNB-75 CNS = tested on: SNB-75 CNS
SNB-78 CNS = tested on: SNB-78 CNS
SR leukemia = tested on: SR leukemia
SW-620 colon = tested on: SW-620 colon
TK-10 renal = tested on: TK-10 renal
U251 CNS = tested on: U251 CNS
UACC-257 melanoma = tested on: UACC-257 melanoma
UACC-62 melanoma = tested on: UACC-62 melanoma
UO-31 renal = tested on: UO-31 renal
XF 498 CNS = tested on: XF 498 CNS

Measured: TGI

O=C(NO)C(=O)Nc1ccc(Cl)cc1[N+](=O)[O-]
not listed: XF 498 CNS
> 100 µM: all other assays above

O=c1cc(-c2ccccc2)oc2cc(OCCSCCCCCCCCCCSCCOc3ccc4c(=O)cc(-c5ccccc5)oc4c3)ccc12
not listed: A498 renal | DMS 273 small cell lung | NCI-H226 lung | NCI-H460 lung | OVCAR-4 ovarian | OVCAR-5 ovarian | SF-539 CNS | XF 498 CNS
> 100 µM: all other assays above

COC(OC)[C@@H](C)[C@H](O)[C@](C)(O)C1OC(C)(C)OC(C(C)C=C(C)C)C1C (stereo partly specified)
not listed: HCC-2998 colon | RXF-631 renal
> 100 µM: all other assays above
